Here are results for five molecules from PubChem BioAssay AID1919001 (Molecular Pharmacology Branch, DTP, NCI, 2023).

The experiment relates to 699152-130-R-J1-PDC complex spheroid growth. The experiment is described as follows: Anticancer human tumor 699152-130-R-J1-PDC patient-derived pancreatic carcinoma cell line growth inhibition [AhR]. The following applies: for viability, T/C: stronger effect = lower value. Summed up:
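Agents were dosed in half-log steps down from roughly clinical Cmax, or from 10 microM where Cmax was unknown, alone and with AhR antagonists. Read-out: percent test/control growth of tumor spheroids containing HUVEC and MSC stromal cells.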

Setting [1] is: curve of first compound, second compound 0.1 µM.
Where [2] appears, read: curve of first compound, second compound 0.316 µM.
The mark [3] stands for this setting: curve of first compound, second compound 1 µM.
The mark [4] stands for this setting: curve of first compound, second compound 3.16 µM.
The mark [5] stands for this setting: curve of first compound, second compound 10 µM.
Where [6] appears, read: second compound 0.1 µM, first compound 0.0316 µM.
Setting [7] is: second compound 0.1 µM, first compound 0.1 µM.
[8] abbreviates: second compound 0.1 µM, first compound 0.316 µM.
The mark [9] stands for this setting: second compound 0.1 µM, first compound 1 µM.
The mark [10] stands for this setting: second compound 0.1 µM, first compound 3.16 µM.
The mark [11] stands for this setting: second compound 0.1 µM, first compound 10 µM.
[12] abbreviates: second compound 0.316 µM, first compound 0.0316 µM.
Where [13] appears, read: second compound 0.316 µM, first compound 0.1 µM.
Setting [14] is: second compound 0.316 µM, first compound 0.316 µM.
The mark [15] stands for this setting: second compound 0.316 µM, first compound 1 µM.
The mark [16] stands for this setting: second compound 0.316 µM, first compound 3.16 µM.
[17] abbreviates: second compound 0.316 µM, first compound 10 µM.
Where [18] appears, read: second compound 1 µM, first compound 0.0316 µM.
The mark [19] stands for this setting: second compound 1 µM, first compound 0.1 µM.
[20] abbreviates: second compound 1 µM, first compound 0.316 µM.
The mark [21] stands for this setting: second compound 1 µM, first compound 1 µM.
The mark [22] stands for this setting: second compound 1 µM, first compound 3.16 µM.
Where [23] appears, read: second compound 1 µM, first compound 10 µM.
Where [24] appears, read: second compound 3.16 µM, first compound 0.0316 µM.
[25] abbreviates: second compound 3.16 µM, first compound 0.1 µM.
[26] abbreviates: second compound 3.16 µM, first compound 0.316 µM.
[27] abbreviates: second compound 3.16 µM, first compound 1 µM.
[28] abbreviates: second compound 3.16 µM, first compound 3.16 µM.
[29] abbreviates: second compound 3.16 µM, first compound 10 µM.
The mark [30] stands for this setting: second compound 10 µM, first compound 0.0316 µM.
Setting [31] is: second compound 10 µM, first compound 0.1 µM.
Where [32] appears, read: second compound 10 µM, first compound 0.316 µM.
The mark [33] stands for this setting: second compound 10 µM, first compound 1 µM.
The mark [34] stands for this setting: second compound 10 µM, first compound 3.16 µM.
Setting [35] is: second compound 10 µM, first compound 10 µM.

Each structure is given as a SMILES string. Several values for one entry are separate records, joined by “and”; a condition that tells them apart may be missing. Equal entries are not always repeated.
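Further: compound exposure lasted 7 days after spheroids had grown for 3 days.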

Turning to `NS(=O)(=O)OCC1CC(n2ccc3c(NC4CCc5ccccc54)ncnc32)CC1O` (centres undefined) + CC(CO)NC(=O)c1cc(-c2ccc(Cl)cc2)nn(-c2cnn(C)c2)c1=O, the half-maximal inhibitory concentration (IC50) – broadly, the concentration that gives 50% inhibition – runs as follows: under setting [1], 0.831 µM; under setting [2], 0.765 µM; under setting [3], 0.679 µM; under setting [4], 0.626 µM; under setting [5], 0.602 µM. Moreover, the viability, T/C (as a rule, the result in the treated group divided by that in the control group, in per cent) reads like this: under setting [6], 108%; under setting [7], 127%; under setting [8], 120%; under setting [9], 36.9%; under setting [10], 25.2%; under setting [11], 29.3%. Moreover, the viability, T/C reads like this: under setting [12], 116%; under setting [13], 132%; under setting [14], 97.2%; under setting [15], 36.8%; under setting [16], 27.5%; under setting [17], 29.1%. Moreover, the viability, T/C is 115% under setting [18]; 126% under setting [19]; 91.1% under setting [20]; 30.4% under setting [21]; 23.1% under setting [22]; 31.4% under setting [23]. Also, the viability, T/C is, setting by setting: under setting [24], 114%; under setting [25], 127%; under setting [26], 80.2%; under setting [27], 31.6%; under setting [28], 25.5%; under setting [29], 30.6%. Moreover, the viability, T/C was 115% under setting [30]; 104% under setting [31]; 69.5% under setting [32]; 34.1% under setting [33]; 27.1% under setting [34]; 30.8% under setting [35].

Take `CC(C)CC(NC(=O)C(Cc1ccccc1)NC(=O)c1cnccn1)B(O)O` (centres undefined) + Cc1ccccc1N=Nc1ccc(NC(=O)c2ccnn2C)c(C)c1: the half-inhibitory concentration (IC50) was found to be 0.0154 µM under setting [1]; 0.0155 µM under setting [2]; 0.0154 µM under setting [3]; 0.0151 µM under setting [4]; 0.0171 µM under setting [5]. Moreover, the viability, T/C reads like this: (second compound 0.1 µM, first compound 0.000949 µM) 86%; (second compound 0.1 µM, first compound 0.003 µM) 93%; (second compound 0.1 µM, first compound 0.00949 µM) 85.9%; (second compound 0.1 µM, first compound 0.03 µM) 1.03%; (second compound 0.1 µM, first compound 0.0949 µM) 0.47%; (second compound 0.1 µM, first compound 0.3 µM) 0.58%. The viability, T/C reads like this: (second compound 0.316 µM, first compound 0.000949 µM) 86%; (second compound 0.316 µM, first compound 0.003 µM) 105%; (second compound 0.316 µM, first compound 0.00949 µM) 86.9%; (second compound 0.316 µM, first compound 0.03 µM) 0.65%; (second compound 0.316 µM, first compound 0.0949 µM) 0.35%; (second compound 0.316 µM, first compound 0.3 µM) 0.4%. Besides, the viability, T/C (second compound 1 µM, first compound 0.000949 µM) was 97.9%; the viability, T/C (second compound 1 µM, first compound 0.003 µM) is 96.8%; the viability, T/C (second compound 1 µM, first compound 0.00949 µM) was 85.3%; the viability, T/C (second compound 1 µM, first compound 0.03 µM) is 0.79%; the viability, T/C (second compound 1 µM, first compound 0.0949 µM) was 0.52%; the viability, T/C (second compound 1 µM, first compound 0.3 µM) was 0.56%. For the same molecule, the viability, T/C was 86.4% (second compound 3.16 µM, first compound 0.000949 µM); 90.7% (second compound 3.16 µM, first compound 0.003 µM); 82.9% (second compound 3.16 µM, first compound 0.00949 µM); 1.35% (second compound 3.16 µM, first compound 0.03 µM); 0.62% (second compound 3.16 µM, first compound 0.0949 µM); 0.61% (second compound 3.16 µM, first compound 0.3 µM). For the same molecule, the viability, T/C by setting is: (second compound 10 µM, first compound 0.000949 µM) 120%; (second compound 10 µM, first compound 0.003 µM) 116%; (second compound 10 µM, first compound 0.00949 µM) 98.9%; (second compound 10 µM, first compound 0.03 µM) 2.93%; (second compound 10 µM, first compound 0.0949 µM) 0.98%; (second compound 10 µM, first compound 0.3 µM) 0.8%.

For the molecule `CC1(C)CCC(CN2CCN(c3ccc(C(=O)NS(=O)(=O)c4ccc(NCC5CCOCC5)c([N+](=O)[O-])c4)c(Oc4cnc5[nH]ccc5c4)c3)CC2)=C(c2ccc(Cl)cc2)C1` + CC(CO)NC(=O)c1cc(-c2ccc(Cl)cc2)nn(-c2cnn(C)c2)c1=O, the 50% inhibitory concentration (IC50) was above 10 µM under setting [1]; above 10 µM under setting [2]; above 10 µM under setting [3]; above 10 µM under setting [4]; above 10 µM under setting [5]. Also, the viability, T/C runs as follows: under setting [6], 102%; under setting [7], 119%; under setting [8], 95.8%; under setting [9], 111%; under setting [10], 89.1%; under setting [11], 60.5%. The viability, T/C was 104% under setting [12]; 109% under setting [13]; 96.5% under setting [14]; 92.2% under setting [15]; 87.1% under setting [16]; 63.1% under setting [17]. The viability, T/C under setting [18] is 96.2%; the viability, T/C under setting [19] was 108%; the viability, T/C under setting [20] is 105%; the viability, T/C under setting [21] is 102%; the viability, T/C under setting [22] is 95.4%; the viability, T/C under setting [23] is 66%. Also, the viability, T/C under setting [24] was 98%; the viability, T/C under setting [25] is 100%; the viability, T/C under setting [26] is 102%; the viability, T/C under setting [27] is 83%; the viability, T/C under setting [28] was 96.9%; the viability, T/C under setting [29] was 65%. For the same molecule, the viability, T/C runs as follows: under setting [30], 90.8%; under setting [31], 91.3%; under setting [32], 97.5%; under setting [33], 84.2%; under setting [34], 84.4%; under setting [35], 73.7%.

Turning to `COc1cc(C2c3cc4c(cc3C(OC3OC5COC(C)OC5C(O)C3O)C3COC(=O)C23)OCO4)cc(OC)c1O` (centres undefined), the viability, T/C (compound 0.0316 µM) is 97.3% and 94.8% and 92.4%; the viability, T/C (compound 0.1 µM) is 94.7% and 101% and 86.3%; the viability, T/C (compound 0.316 µM) is 76.1% and 83.2% and 73.8%; the viability, T/C (compound 1 µM) is 66.5% and 70.9% and 62.2%; the viability, T/C (compound 3.16 µM) is 68.3% and 64.6% and 51.9%; the viability, T/C (compound 10 µM) was 53.4% and 53.8% and 44.4%. The half-inhibitory concentration (IC50) (curve of compound) was > 10 µM and 4.09 µM.

In the case of `CC1COCCN1c1cc(C2(S(C)(=N)=O)CC2)nc(-c2ccnc3[nH]ccc23)n1` (centres undefined), the viability, T/C is 100% and 99.4% and 98.3% (compound 0.0316 µM); 103% and 95.1% and 112% (compound 0.1 µM); 91.5% and 95.4% and 103% (compound 0.316 µM); 96.7% and 88.4% and 104% (compound 1 µM); 93% and 82.9% and 89.2% (compound 3.16 µM); 78% and 67.5% and 71.1% (compound 10 µM). In addition, the concentration for half-maximal inhibition (IC50) (curve of compound) was above 10 µM.
